Tests used:
[1] = biological target: Serine/threonine-protein kinase ULK1 (Homo sapiens) (UniProt O75385); conditions: Compound concentration 1000.0 nM
[2] = biological target: Ribosomal protein S6 kinase alpha-1 (Homo sapiens) (UniProt Q15418); conditions: Compound concentration 1000.0 nM
[3] = biological target: Death-associated protein kinase 3 (Homo sapiens) (UniProt O43293); conditions: Compound concentration 1000.0 nM
[4] = biological target: Peripheral plasma membrane protein CASK (Homo sapiens) (UniProt O14936); conditions: Compound concentration 1000.0 nM
[5] = biological target: Platelet-derived growth factor receptor alpha (Homo sapiens) (UniProt P16234); conditions: Compound concentration 1000.0 nM
[6] = biological target: Mitogen-activated protein kinase 13 (Homo sapiens) (UniProt O15264); conditions: Compound concentration 1000.0 nM
[7] = biological target: SRSF protein kinase 2 (Homo sapiens) (UniProt P78362); conditions: Compound concentration 1000.0 nM
[8] = biological target: T1, Alpha-2B adrenergic receptor (Homo sapiens) (UniProt P18089); conditions: Compound concentration 10.0 uM
T1 sequence (whole entry): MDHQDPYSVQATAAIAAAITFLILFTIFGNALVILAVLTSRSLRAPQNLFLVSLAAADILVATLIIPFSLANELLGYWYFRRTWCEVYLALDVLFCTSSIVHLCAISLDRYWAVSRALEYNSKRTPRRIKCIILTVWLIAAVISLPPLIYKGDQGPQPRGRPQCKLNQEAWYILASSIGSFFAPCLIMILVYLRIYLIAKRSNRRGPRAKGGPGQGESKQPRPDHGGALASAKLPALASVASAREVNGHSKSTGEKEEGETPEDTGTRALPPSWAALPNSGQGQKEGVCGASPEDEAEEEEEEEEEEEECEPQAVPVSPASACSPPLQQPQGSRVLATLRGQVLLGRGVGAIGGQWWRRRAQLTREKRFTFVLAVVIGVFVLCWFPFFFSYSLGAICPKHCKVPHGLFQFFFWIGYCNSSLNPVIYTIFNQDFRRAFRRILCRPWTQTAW

[9] = biological target: Mitogen-activated protein kinase 7 (Homo sapiens) (UniProt Q13164); conditions: Compound concentration 1000.0 nM
[10] = biological target: Activin receptor type-1-like (Homo sapiens) (UniProt P37023); conditions: Compound concentration 1000.0 nM
[11] = system: Phosphatidylinositol 4,5-bisphosphate 3-kinase catalytic subunit alpha isoform (Homo sapiens), P42336 [H1047Y]; conditions: Compound concentration 1000.0 nM
[12] = biological target: Casein kinase I isoform epsilon (Homo sapiens) (UniProt P49674); conditions: Compound concentration 1000.0 nM
[13] = biological target: Receptor-interacting serine/threonine-protein kinase 1 (Homo sapiens) (UniProt Q13546); conditions: Compound concentration 1000.0 nM
[14] = biological target: Serine/threonine-protein kinase D1 (Homo sapiens) (UniProt Q15139); conditions: Compound concentration 1000.0 nM
[15] = biological target: Tyrosine-protein kinase JAK2 (Homo sapiens) (UniProt O60674); conditions: Compound concentration 1000.0 nM
[16] = biological target: Cyclin-dependent kinase 14 (Homo sapiens) (UniProt O94921); conditions: Compound concentration 1000.0 nM
[17] = biological target: RAC-beta serine/threonine-protein kinase (Homo sapiens) (UniProt P31751); conditions: Compound concentration 1000.0 nM
[18] = biological target: Mitogen-activated protein kinase kinase kinase 11 (Homo sapiens) (UniProt Q16584); conditions: Compound concentration 1000.0 nM
[19] = biological target: Ribosomal protein S6 kinase beta-1 (Homo sapiens) (UniProt P23443); conditions: Compound concentration 1000.0 nM
[20] = biological target: STE20-like serine/threonine-protein kinase (Homo sapiens) (UniProt Q9H2G2); conditions: Compound concentration 1000.0 nM
[21] = biological target: Serine/threonine-protein kinase TAO3 (Homo sapiens) (UniProt Q9H2K8); conditions: Compound concentration 1000.0 nM
[22] = biological target: SNF-related serine/threonine-protein kinase (Homo sapiens) (UniProt Q9NRH2); conditions: Compound concentration 1000.0 nM
[23] = system: Epidermal growth factor receptor (Homo sapiens), P00533 [UNDEFINED MUTATION]; conditions: Compound concentration 1000.0 nM
[24] = biological target: Serine/threonine-protein kinase pim-3 (Homo sapiens) (UniProt Q86V86); conditions: Compound concentration 1000.0 nM
[25] = system: Tyrosine-protein kinase ABL1 (Homo sapiens), P00519 [Q252H]; conditions: Compound concentration 1000.0 nM
[26] = biological target: 5-hydroxytryptamine receptor 7 (Homo sapiens, UniProt P34969); experiment: GPCRScan assay: inhibition of 5-HT7A; parameters: radioligand conc. used [nm] 5.0 – 6.0, parental cells Stable HEK
[27] = biological target: Serine/threonine-protein kinase Nek5 (Homo sapiens) (UniProt Q6P3R8); conditions: Compound concentration 1000.0 nM
[28] = biological target: Cyclin-dependent kinase 4 (Homo sapiens) (UniProt P11802); conditions: Compound concentration 1000.0 nM
[29] = biological target: Sodium-dependent dopamine transporter (Homo sapiens, UniProt Q01959); conditions: Compound concentration 10.0 uM
[30] = system: Tyrosine-protein kinase ABL1 (Homo sapiens), P00519 [F317I]; conditions: Compound concentration 1000.0 nM
[31] = biological target: Serine/threonine-protein kinase 10 (Homo sapiens) (UniProt O94804); conditions: Compound concentration 1000.0 nM
[32] = biological target: Mast/stem cell growth factor receptor Kit (Homo sapiens) (UniProt P10721); conditions: Compound concentration 1000.0 nM
[33] = biological target: Serine/threonine-protein kinase Nek3 (Homo sapiens) (UniProt P51956); conditions: Compound concentration 1000.0 nM
[34] = biological target: 5-hydroxytryptamine receptor 1D (Homo sapiens, UniProt P28221); conditions: Compound concentration 10.0 uM
[35] = biological target: Mast/stem cell growth factor receptor Kit (Homo sapiens) (UniProt P10721); conditions: Compound concentration 1000.0 nM; remark: listed apart in the source
[36] = system: ALK tyrosine kinase receptor (Homo sapiens), Q9UM73 [L1196M]; conditions: Compound concentration 1000.0 nM
[37] = biological target: Interleukin-1 receptor-associated kinase 4 (Homo sapiens) (UniProt Q9NWZ3); conditions: Compound concentration 1000.0 nM
[38] = biological target: Vascular endothelial growth factor receptor 1 (Homo sapiens) (UniProt P17948); conditions: Compound concentration 1000.0 nM
[39] = biological target: Serine/threonine-protein kinase pim-2 (Homo sapiens) (UniProt Q9P1W9); conditions: Compound concentration 1000.0 nM

Chain of 5-hydroxytryptamine receptor 7 (P34969 whole entry): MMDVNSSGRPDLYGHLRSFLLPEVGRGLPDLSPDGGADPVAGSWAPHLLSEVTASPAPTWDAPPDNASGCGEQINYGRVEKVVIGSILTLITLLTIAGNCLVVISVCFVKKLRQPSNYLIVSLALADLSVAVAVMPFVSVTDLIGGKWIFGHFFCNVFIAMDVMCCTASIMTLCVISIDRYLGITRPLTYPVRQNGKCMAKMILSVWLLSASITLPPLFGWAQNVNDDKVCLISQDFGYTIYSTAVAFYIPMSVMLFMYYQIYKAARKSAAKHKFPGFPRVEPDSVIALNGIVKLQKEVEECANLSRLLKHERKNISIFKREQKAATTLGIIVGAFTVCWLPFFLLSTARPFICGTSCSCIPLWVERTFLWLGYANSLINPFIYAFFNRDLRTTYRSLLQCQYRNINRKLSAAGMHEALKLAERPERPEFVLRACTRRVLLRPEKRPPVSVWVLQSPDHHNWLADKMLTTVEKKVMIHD
Chain of Mast/stem cell growth factor receptor Kit (Homo sapiens) (P10721 whole entry): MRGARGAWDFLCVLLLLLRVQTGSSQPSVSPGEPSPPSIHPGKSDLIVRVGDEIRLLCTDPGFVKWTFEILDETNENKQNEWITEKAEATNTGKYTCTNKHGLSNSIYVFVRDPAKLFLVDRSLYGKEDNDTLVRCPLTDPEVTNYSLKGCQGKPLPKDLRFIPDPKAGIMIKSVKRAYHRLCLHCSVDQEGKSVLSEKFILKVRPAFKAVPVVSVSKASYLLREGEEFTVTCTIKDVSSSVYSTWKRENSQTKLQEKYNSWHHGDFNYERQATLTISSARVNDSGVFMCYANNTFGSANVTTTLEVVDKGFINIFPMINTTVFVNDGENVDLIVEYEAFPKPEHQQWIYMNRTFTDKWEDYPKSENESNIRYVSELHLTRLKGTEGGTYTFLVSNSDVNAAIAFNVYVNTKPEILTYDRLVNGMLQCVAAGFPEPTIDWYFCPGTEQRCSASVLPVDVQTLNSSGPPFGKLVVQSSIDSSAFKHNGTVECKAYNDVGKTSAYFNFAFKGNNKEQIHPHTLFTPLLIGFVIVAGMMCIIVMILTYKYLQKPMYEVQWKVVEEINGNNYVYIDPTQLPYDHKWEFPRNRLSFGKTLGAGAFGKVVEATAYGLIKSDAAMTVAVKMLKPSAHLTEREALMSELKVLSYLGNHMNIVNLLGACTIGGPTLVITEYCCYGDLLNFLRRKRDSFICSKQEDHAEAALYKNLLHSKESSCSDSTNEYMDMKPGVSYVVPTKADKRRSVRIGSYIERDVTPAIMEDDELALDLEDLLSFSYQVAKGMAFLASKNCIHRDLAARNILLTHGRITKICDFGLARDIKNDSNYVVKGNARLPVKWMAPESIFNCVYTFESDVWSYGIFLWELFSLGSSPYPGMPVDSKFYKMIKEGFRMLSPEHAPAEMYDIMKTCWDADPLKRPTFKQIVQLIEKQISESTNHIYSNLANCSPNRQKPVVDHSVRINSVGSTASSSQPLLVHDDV
Chain of Mitogen-activated protein kinase 13 (Homo sapiens) (O15264 whole entry): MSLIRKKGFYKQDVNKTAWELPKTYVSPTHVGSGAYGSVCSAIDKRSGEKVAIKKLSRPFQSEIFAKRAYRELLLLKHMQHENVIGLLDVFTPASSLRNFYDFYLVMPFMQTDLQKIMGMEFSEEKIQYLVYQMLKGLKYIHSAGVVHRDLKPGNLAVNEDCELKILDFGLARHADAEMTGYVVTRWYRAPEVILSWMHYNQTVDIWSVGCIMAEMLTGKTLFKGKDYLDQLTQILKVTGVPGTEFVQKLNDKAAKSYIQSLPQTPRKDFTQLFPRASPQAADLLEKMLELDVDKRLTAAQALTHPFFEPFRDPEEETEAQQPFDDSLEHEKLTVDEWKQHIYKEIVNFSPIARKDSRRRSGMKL
Chain of Tyrosine-protein kinase JAK2 (Homo sapiens) (O60674 whole entry): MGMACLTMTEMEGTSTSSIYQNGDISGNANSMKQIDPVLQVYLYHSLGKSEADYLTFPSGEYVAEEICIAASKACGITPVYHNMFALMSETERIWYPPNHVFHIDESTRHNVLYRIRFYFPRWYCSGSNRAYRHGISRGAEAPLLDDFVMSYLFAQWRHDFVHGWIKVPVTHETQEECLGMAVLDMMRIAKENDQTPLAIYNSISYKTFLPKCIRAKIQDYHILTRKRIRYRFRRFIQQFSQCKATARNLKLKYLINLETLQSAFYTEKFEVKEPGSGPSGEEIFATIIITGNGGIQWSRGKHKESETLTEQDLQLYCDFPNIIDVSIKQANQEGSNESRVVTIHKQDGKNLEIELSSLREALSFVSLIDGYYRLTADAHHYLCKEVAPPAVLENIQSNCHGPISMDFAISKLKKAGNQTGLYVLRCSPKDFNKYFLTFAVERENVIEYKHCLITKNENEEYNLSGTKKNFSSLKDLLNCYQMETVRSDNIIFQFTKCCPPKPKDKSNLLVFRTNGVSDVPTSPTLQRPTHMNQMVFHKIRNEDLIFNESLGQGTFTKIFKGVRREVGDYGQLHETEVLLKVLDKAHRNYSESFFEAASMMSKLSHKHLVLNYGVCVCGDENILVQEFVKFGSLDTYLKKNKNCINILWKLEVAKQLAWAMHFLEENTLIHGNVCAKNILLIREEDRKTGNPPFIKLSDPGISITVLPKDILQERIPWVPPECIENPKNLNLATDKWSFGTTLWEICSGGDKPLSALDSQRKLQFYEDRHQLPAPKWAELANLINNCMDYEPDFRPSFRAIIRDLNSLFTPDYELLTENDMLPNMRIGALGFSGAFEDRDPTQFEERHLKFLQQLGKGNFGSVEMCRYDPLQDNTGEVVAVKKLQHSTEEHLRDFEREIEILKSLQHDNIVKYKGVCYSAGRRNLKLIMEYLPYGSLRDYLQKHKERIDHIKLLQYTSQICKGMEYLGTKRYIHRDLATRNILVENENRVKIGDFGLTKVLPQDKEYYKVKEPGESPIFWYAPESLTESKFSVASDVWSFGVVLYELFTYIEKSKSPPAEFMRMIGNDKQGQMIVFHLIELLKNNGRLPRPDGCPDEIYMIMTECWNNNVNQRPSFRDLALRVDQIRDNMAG
Chain of Serine/threonine-protein kinase ULK1 (Homo sapiens) (O75385 whole entry): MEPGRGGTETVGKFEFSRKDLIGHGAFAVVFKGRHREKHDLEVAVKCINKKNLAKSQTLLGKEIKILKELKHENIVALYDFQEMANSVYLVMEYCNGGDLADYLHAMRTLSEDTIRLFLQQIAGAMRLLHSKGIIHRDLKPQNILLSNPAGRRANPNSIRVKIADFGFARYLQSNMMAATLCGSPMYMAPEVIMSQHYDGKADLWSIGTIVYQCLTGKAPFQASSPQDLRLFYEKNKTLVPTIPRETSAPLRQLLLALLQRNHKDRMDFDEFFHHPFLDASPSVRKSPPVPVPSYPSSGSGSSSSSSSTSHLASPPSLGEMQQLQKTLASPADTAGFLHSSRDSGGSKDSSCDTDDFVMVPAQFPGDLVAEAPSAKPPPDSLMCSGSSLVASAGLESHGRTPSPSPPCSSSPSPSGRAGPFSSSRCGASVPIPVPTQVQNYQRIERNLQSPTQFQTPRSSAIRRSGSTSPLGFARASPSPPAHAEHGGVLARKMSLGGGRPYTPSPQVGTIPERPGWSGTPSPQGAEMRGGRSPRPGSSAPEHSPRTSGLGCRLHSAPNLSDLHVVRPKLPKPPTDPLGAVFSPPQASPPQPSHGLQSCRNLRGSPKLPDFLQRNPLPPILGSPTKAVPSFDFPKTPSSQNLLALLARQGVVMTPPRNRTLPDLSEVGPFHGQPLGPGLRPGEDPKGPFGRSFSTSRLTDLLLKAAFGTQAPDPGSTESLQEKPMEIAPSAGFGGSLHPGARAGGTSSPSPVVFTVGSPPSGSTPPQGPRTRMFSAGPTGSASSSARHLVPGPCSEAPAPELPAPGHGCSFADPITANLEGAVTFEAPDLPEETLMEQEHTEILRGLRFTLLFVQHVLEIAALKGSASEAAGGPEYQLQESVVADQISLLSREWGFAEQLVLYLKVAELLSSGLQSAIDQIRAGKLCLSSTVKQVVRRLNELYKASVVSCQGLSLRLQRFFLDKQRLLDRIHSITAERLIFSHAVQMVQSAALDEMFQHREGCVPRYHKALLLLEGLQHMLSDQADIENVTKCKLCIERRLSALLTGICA
Chain of Casein kinase I isoform epsilon (Homo sapiens) (P49674 whole entry, looked up, canonical isoform): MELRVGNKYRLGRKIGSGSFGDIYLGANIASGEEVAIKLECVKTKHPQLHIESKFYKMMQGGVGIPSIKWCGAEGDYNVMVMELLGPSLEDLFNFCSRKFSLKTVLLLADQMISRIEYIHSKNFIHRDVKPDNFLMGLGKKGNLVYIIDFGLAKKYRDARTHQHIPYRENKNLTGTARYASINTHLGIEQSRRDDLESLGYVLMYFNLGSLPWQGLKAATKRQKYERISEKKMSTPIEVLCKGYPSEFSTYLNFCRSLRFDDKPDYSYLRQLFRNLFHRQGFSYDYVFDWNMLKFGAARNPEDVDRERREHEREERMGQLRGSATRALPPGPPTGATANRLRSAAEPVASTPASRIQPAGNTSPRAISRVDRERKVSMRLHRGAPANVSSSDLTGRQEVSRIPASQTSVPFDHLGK
Chain of Cyclin-dependent kinase 4 (Homo sapiens) (P11802 whole entry): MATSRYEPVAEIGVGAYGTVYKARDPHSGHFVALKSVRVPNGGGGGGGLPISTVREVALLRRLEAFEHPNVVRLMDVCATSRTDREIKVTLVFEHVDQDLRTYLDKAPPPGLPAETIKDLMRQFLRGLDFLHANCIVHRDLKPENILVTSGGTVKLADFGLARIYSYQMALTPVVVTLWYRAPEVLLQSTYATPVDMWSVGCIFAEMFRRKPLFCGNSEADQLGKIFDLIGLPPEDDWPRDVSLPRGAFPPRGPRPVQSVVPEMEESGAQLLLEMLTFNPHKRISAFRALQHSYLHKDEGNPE

Compound	residual activity [1]	residual activity [2]	residual activity [3]	residual activity [4]	residual activity [5]	residual activity [6]	residual activity [7]	inhibition [8]	residual activity [9]	residual activity [10]	residual activity [11]	residual activity [12]	residual activity [13]	residual activity [14]	residual activity [15]	residual activity [16]	residual activity [17]	residual activity [18]	residual activity [19]	residual activity [20]	also measured
CNCc1ccccc1-c1csc([C@@H](C)Nc2nc(C)nc3cc(OC)c(OC)cc23)c1 [BAY-293]	88%	100%	100%	81%	84%	100%	61%	64.2%	97%	87%	100%	99%	97%	90%	67%	100%	72%	99%	86%	97%	residual activity [21]: 83%; residual activity [22]: 78%; residual activity [23]: 82%; residual activity [24]: 83%; residual activity [25]: 85%; Ki ([26]; read-out: Ki): 1.73 µM; Ki ([26]; read-out: pKi (converted)): 1.7 µM; residual activity [27]: 99%; residual activity [28]: 90%; inhibition [29]: 77.2%; residual activity [30]: 78%; residual activity [31]: 95%; residual activity [32]: 100%; residual activity [33]: 100%; inhibition [34]: 98.1%; residual activity [35]: 81%; residual activity [36]: 100%; residual activity [37]: 76%; residual activity [38]: 87%; residual activity [39]: 100%
CNCc1ccccc1-c1csc([C@H](C)Nc2nc(C)nc3cc(OC)c(OC)cc23)c1 [BAY-294]	91%	100%	100%	71%	92%	100%	52%	82.9%	100%	100%	100%	91%	100%	100%	63%	100%	90%	100%	83%	100%	residual activity [21]: 75%; residual activity [22]: 93%; residual activity [23]: 98%; residual activity [24]: 100%; residual activity [25]: 84%; Ki ([26]; read-out: Ki): 0.7 µM; residual activity [27]: 100%; residual activity [28]: 96%; inhibition [29]: 70.3%; residual activity [30]: 80%; residual activity [31]: 100%; residual activity [32]: 100%; residual activity [33]: 87%; inhibition [34]: 98.9%; residual activity [35]: 70%; residual activity [36]: 93%; residual activity [37]: 89%; residual activity [38]: 91%; residual activity [39]: 100%

Reference: ChEMBL document CHEMBL4507273 (2021)
